Data from patent publication US6916970B2, “Transgenic plants comprising antifungal polypeptides from alfalfa and methods for controlling plant pathogenic fungi” (Monsanto Technology, LLC, priority 1996, dated 2005).

Legend:
Fusarium culmorum = test: Inhibition of fungal hyphal growth (microscopic hyphal length assay); assay type: cell-based; details: F. culmorum
Experimental: (§1) The antifungal activity of AlfAFP1 (SEQ ID NO:2) is expressed as the concentration in μg/ml required to cause 50% inhibition of fungal hyphal growth (IC50). Percent fungal hyphal growth inhibition is defined as […] of the average hyphae length in the test sample culture divided by the average hyphae length in the control culture in which buffer is added in place of the polypeptide sample.
(§2) The antifungal activity of AlfAFP1 was determined by measuring the inhibition of fungal hyphal length of a number of different fungi in the presence of this polypeptide under an inverted microscope. Fungal spores (2×10^4 spores/ml) were allowed to germinate for 5 to 15 hours, depending on the fungus used in the test, in 50 μl of double strength testing medium. […] For studies on the antagonistic effect of cations, CaCl2 and KCl were added to final concentrations of 1 mM and 50 mM, respectively. This salt-supplemented medium is referred to as “high salt medium,” and the original medium is referred to as “low salt medium.” After spore germination, 50 μl of a filter-sterilized solution of polypeptide in distilled water were added to the testing well containing the germinated spores, and the mixture was incubated for 15 to 24 hours at 24° C. AlfAFP1 was tested in a concentration range from 0 to 80 μg/ml to determine IC50 values. Polypeptide concentrations were determined using the BCA protein assay kit obtained from Pierce (Rockford, Ill.).

Verticillium dahliae [1] = test: as above; assay type: cell-based; details: V. dahliae
Experimental: as §1, §2

Verticillium dahliae [2] = test: Verticillium wilt disease test on transgenic potato plants expressing AlfAFP1; assay type: in vivo, potato plants (Solanum tuberosum var. Russet Burbank)
Experimental: Conidia and mycelia of a 2-3 week old culture of virulent Verticillium dahliae were used to inoculate a PDA (potatoes, 200 g/l; Bacto dextrose, 20 g/l; and Bacto agar, 15 g/l) Petri plate. This culture was allowed to grow at 22° C. for 4-5 days. Conidia were then harvested by washing the culture plate with sterile distilled water and filtering the liquid through two layers of cheesecloth. The conidial spore concentration was determined using a hemacytometer, and adjusted to 1×10^6 conidia/ml with sterile distilled water.
Transgenic and non-transgenic potato plants were grown from stem cuttings under sterile conditions as described above in plastic cups containing 50 mls of PM-agar medium. When plants were about 1-2 inches tall, they were removed from the medium and their roots were dipped in the spore suspension (Joaquim et al., 1991). The inoculated plants were then transplanted into 6-inch pots containing Metro-Mix 350 soil. After transplanting, each plant received an additional 5 mls of the spore suspension (1×10^6 condida/ml) on the soil surface around the base of the stem. The pots were placed in a growth chamber under the following conditions: temperature at 20° C., light intensity at […], 12 hr day/12 hr night light cycle, subirrigation with water 2 times/day, 20 minutes soaking each time. Four weeks after inoculation, the plants were scored for disease severity on a scale of 0-100% (Horsfall et al., 1945). To develop a disease progress curve over time, plants were rated once a week for at least 8 weeks.
Twenty-one independent transgenic potato lines expressing AlfAFP1 were tested for resistance to Verticillium wilt disease. […]
Table 2 summarizes the qualitative protein expression data for each of the lines, and the disease severity rating of each individual line in the Verticillium wilt disease test determined at 46 days post inoculation. […]

[3] = high salt medium (1 mM CaCl2 and 50 mM KCl added)

What does the source list for “AlfAFP1: antifungal polypeptide of 45 amino acids isolated from alfalfa (Medicago) seed, SEQ ID NO:2, about 5,186 daltons (RTCENLADKYRGPCFSGCDTHCTTKENAVSGRCRDDFRCWCTKRC; Alfalfa)”?
IC50 (concentration required to cause 50% inhibition of fungal hyphal growth), High salt (Fusarium culmorum; [3]): 15 µg/mL; IC50 (concentration required to cause 50% inhibition of fungal hyphal growth), Low salt (Fusarium culmorum; low salt medium): 1 µg/mL; IC50 (concentration required to cause 50% inhibition of fungal hyphal growth), High salt (Verticillium dahliae [1]; [3]): 15 µg/mL; IC50 (concentration required to cause 50% inhibition of fungal hyphal growth), Low salt (Verticillium dahliae [1]; low salt medium): 4 µg/mL; Lines with disease severity rated equal to or less than 30% (Verticillium dahliae [2]; AlfAFP1 expressing potato lines, 46 days post inoculation, controls 1 out of 21 and 1 out of 18): Thirteen out of 21; Average Disease Severity (%) (46 Days Post Inoc.) (Verticillium dahliae [2]; average of 21 AlfAFP1 positive potato lines, non-expressors 62.7, vector control 62.2): 29.6%; Disease severity less than that of the non-expressors or the vector controls (Verticillium dahliae [2]; average of 21 expressor lines versus 21 non-expressor lines or 18 vector control lines, 46 days post inoculation): 52%
